Assay results taken from ChEMBL document CHEMBL1129522, “Inhibitors of acyl-CoA:cholesterol O-acyltransferase. 17. Structure-activity relationships of several series of compounds derived from N-chlorosulfonyl isocyanate” (J Med Chem, 1996).
Where “and” joins values, the source holds several entries; their conditions need not be identical. Equal entries are not always repeated.

Columns and labels:
Rattus norvegicus = assay: Acute in vivo activity measured by total plasma cholesterol concentration levels (TC) at 30 mg/kg dose; assay type: functional
[1] = target: T1, Sterol O-acyltransferase 1 (Rattus norvegicus) (UniProt O70536); assay: Chronic in vivo activity was measured by the concentration of high density lipoproteins (HDL) in cholesterol fed rats; assay type: functional, organism-based
T1 sequence (whole entry): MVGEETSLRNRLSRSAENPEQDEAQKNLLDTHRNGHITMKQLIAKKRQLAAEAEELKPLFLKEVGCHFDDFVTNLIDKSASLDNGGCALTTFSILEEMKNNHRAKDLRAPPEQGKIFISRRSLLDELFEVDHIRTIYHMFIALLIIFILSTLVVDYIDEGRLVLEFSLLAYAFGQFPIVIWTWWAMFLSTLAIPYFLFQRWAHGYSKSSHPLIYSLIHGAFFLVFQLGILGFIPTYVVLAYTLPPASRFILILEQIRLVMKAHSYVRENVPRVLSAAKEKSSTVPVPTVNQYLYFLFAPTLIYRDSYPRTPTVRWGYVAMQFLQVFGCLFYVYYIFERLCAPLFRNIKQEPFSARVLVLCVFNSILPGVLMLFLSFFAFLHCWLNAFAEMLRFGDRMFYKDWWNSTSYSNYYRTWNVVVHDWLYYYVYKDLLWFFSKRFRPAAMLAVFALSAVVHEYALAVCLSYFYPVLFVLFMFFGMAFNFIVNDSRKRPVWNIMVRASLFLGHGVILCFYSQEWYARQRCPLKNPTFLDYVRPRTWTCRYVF

[2] = target: T1, Sterol O-acyltransferase 1 (Rattus norvegicus); assay: Acute in vivo activity was measured by the total plasma cholesterol concentration levels(TC) at dose 3 mg/kg; assay type: functional, organism-based; design: dose 3 mg/kg
[3] = target: T2, Sterol O-acyltransferase 1 (Rattus norvegicus, UniProt O70536); assay: In vitro inhibitory activity against acyl coenzyme A:cholesterol acyltransferase 1 in microsomes of rat liver
T2 sequence (O70536 whole entry): T1 sequence (whole entry)

[4] = target: T1, Sterol O-acyltransferase 1 (Rattus norvegicus); assay: Chronic in vivo activity was measured by the total cholesterol concentration levels in cholesterol fed rats; assay type: functional, organism-based
[5] = target: T1, Sterol O-acyltransferase 1 (Rattus norvegicus); assay: Acute in vivo activity was measured by the total plasma cholesterol concentration levels(TC) at dose 50 mg/kg; assay type: functional, organism-based; design: dose 50 mg/kg
[6] = target: T1, Sterol O-acyltransferase 1 (Rattus norvegicus); assay: Chronic in vivo activity was measured by the total cholesterol concentration levels in Cholesterol-Fed Rats; assay type: functional, organism-based

Compound | Delta TC (Rattus norvegicus) | Delta HDL [1] | Delta TC [2] | IC50 [3] | Delta TC [4] | Delta TC [5] | Delta TC [6]
CC(C)c1cccc(C(C)C)c1NC(=O)NS(=O)(=O)N(Cc1ccccc1)Cc1ccccc1 | -36% | 183% | -18% | 2.2 µM | -28% | – | –
CCCN(CCC)S(=O)(=O)NC(=O)Nc1c(C(C)C)cccc1C(C)C | -60% | 78% | -51% | 1.1 µM | -53% | – | –
CCCCCCCCN(CCCCCCCC)S(=O)(=O)NC(=O)Nc1c(C(C)C)cccc1C(C)C | -53% | 150% | -38% | 1.9 µM | -56% | – | –
COc1cc(OC)c(OS(=O)(=O)NC(=O)Oc2c(C(C)C)cccc2C(C)C)c(OC)c1 | -61% | 62% | -37% | > 50 µM | -37% | – | –
CCCCCCCCCCCCOS(=O)(=O)NC(=O)Oc1c(C(C)C)cccc1C(C)C | -68% | 31% | -63% | 13 µM | -56% | – | –
CC(C)c1cccc(C(C)C)c1OC(=O)NS(=O)(=O)Nc1nc2ccccc2[nH]1 | – | – | – | 52 µM | – | 8% | –
CC(C)(C)c1cccc(C(C)(C)C)c1OC(=O)NS(=O)(=O)NC(c1ccccc1)c1ccccc1 | – | 50% | – | 11.4 µM | – | -35% | -46%
CC(C)c1cccc(C(C)C)c1NC(=O)NS(=O)(=O)NC1c2ccccc2-c2ccccc21 | – | – | – | 25 µM | – | -4% | –
CC(C)c1cccc(C(C)C)c1NC(=O)NS(=O)(=O)NCC(c1ccccc1)c1ccccc1 | – | – | – | 5.9 µM | – | -20% | –
CC(C)c1cccc(C(C)C)c1NS(=O)(=O)NC(=O)Oc1c(C(C)(C)C)cccc1C(C)(C)C | – | 200% | – | 16.8 µM | – | -57% | -28%
CC(C)c1cc(C(C)C)c(OC(=O)NS(=O)(=O)Oc2c(C(C)C)cc(C(C)C)cc2C(C)C)c(C(C)C)c1 | -65% | 129% | -32% | 22 µM | -62% | – | –
CC(C)c1cccc(C(C)C)c1NC(=O)NS(=O)(=O)N(C(C)C)C(C)C | – | 83% | – | 0.24 µM | -38% | -59% | –
CC(C)c1cccc(C(C)C)c1OC(=O)NS(=O)(=O)NCC(c1ccccc1)c1ccccc1 | – | – | – | 49 µM | – | -29% | –
CC(C)c1cccc(C(C)C)c1NC(=O)NS(=O)(=O)NC(c1ccccc1)c1ccccc1 | – | – | – | 4.1 µM | – | -14% | –
CC(C)c1cc(C(C)C)c(OS(=O)(=O)NC(=O)Oc2c(C(C)C)cccc2C(C)C)c(C(C)C)c1 | -67% | 295% | -63% | 29 µM | -61% | – | –
CC(C)(C)c1cccc(C(C)(C)C)c1OC(=O)NS(=O)(=O)N(Cc1ccccc1)Cc1ccccc1 | – | – | – | 11 µM | – | -3% | –
COc1cc(C(C)C)c(OC(=O)NS(=O)(=O)Oc2c(C(C)C)cccc2C(C)C)c(C(C)C)c1 | -56% | 8% | 1% | > 25 µM | -12% | – | –
CC(C)c1cccc(C(C)C)c1OS(=O)(=O)NC(=O)Oc1c(C(C)C)c(C(C)C)c(F)c(C(C)C)c1C(C)C | -71% | 208% | -47% | 13 µM | -74% | – | –
CCCCCCCCCCCCOS(=O)(=O)NC(=O)Oc1c(C(C)(C)C)cc(C)cc1C(C)(C)C | -65% | 23% | -41% | 52 µM | -33% | – | –
CC(C)c1cccc(C(C)C)c1NC(=O)NS(=O)(=O)N(Cc1ccccc1)C(C)C | – | 150% | – | 0.4 µM | -41% | -60% | –

Compound | Delta TC (Rattus norvegicus) | Delta HDL [1] | Delta TC [2] | IC50 [3] | Delta TC [4] | Delta TC [5] | Delta TC [6]
CC(C)(C)c1cccc(C(C)(C)C)c1OC(=O)NS(=O)(=O)Nc1ccccc1 | – | – | – | 19 µM | – | -26% | –
Cc1cc(C(C)(C)C)c(OC(=O)NS(=O)(=O)NCC(c2ccccc2)c2ccccc2)c(C(C)(C)C)c1 | – | 144% | – | 24.4 µM | -51% | -54% | –
CC(C)c1cccc(C(C)C)c1NS(=O)(=O)NC(=O)Oc1c(C(C)C)cccc1C(C)C | – | 388% | – | 25.8 µM | -9% | -65% | –
CC(C)c1cccc(C(C)C)c1NC(=O)NS(=O)(=O)Nc1c(C(C)C)cccc1C(C)C | – | 80% | – | 11 µM | -37% | -54% | –
Cc1cc(C(C)(C)C)c(OC(=O)NS(=O)(=O)Nc2c(C(C)C)cccc2C(C)C)c(C(C)(C)C)c1 | – | 156% | – | 13.5 µM | -38% | -56% | –
Cc1cc(C(C)(C)C)c(OC(=O)NS(=O)(=O)NC(c2ccccc2)c2ccccc2)c(C(C)(C)C)c1 | – | 100% | – | 11.5 µM | -25% | -42% | –
CC(C)c1cccc(C(C)C)c1OC(=O)NS(=O)(=O)NC(c1ccccc1)c1ccccc1 | – | – | – | 10.6 µM | – | 46% | –
CC(C)(C)c1cccc(C(C)(C)C)c1OC(=O)NS(=O)(=O)NCC(c1ccccc1)c1ccccc1 | – | – | – | 21.8 µM | – | -32% | –
CC(C)c1cccc(C(C)C)c1OS(=O)(=O)NC(=O)Oc1c(C(C)(C)C)cc(C(C)(C)C)cc1C(C)(C)C | -76% | 108% | -69% | 26 µM | -78% | – | –
CC(C)c1cccc(C(C)C)c1NC(=O)NS(=O)(=O)N(C(C)C)C(C)(C)C | -17% | 43% | -55% | 0.14 µM | -48% | – | –
CC(C)c1cccc(C(C)C)c1OC(=O)NS(=O)(=O)Nc1ccccc1 | – | 240% | – | 38.1 µM | -33% | -55% | –
CCCCN(CCCC)S(=O)(=O)NC(=O)Nc1c(C(C)C)cccc1C(C)C | – | – | -64% and -52% | – | -52% and -40% | -66% | –
CC(C)c1cc(C(C)(C)C)cc(C(C)C)c1OC(=O)NS(=O)(=O)Oc1c(C(C)C)cccc1C(C)C | -58% | 177% | -55% | 8.8 µM | -72% | – | –
Cc1cc(C(C)(C)C)c(OC(=O)NS(=O)(=O)Oc2c(C(C)C)cccc2C(C)C)c(C(C)(C)C)c1 | -72% | 205% | -52% | 7.7 µM | -66% | – | –
CC(C)c1ccc(C(C)C)c(NC(=O)NS(=O)(=O)Oc2c(C(C)C)cccc2C(C)C)c1 | -43% | 5% | -1% | 8.7 µM | -43% | – | –
CC(C)c1cc(C(C)C)c(OC(=O)NS(=O)(=O)Oc2c(C(C)C)cccc2C(C)C)c(C(C)C)c1 | -79% | 153% | -57% | 14 µM | -74% | – | –
CC(C)c1cccc(C(C)C)c1OS(=O)(=O)NC(=O)Oc1c(C(C)(C)C)cccc1C(C)(C)C | -70% | 25% | -50% | 12 µM | -64% | – | –
Cc1cc(C(C)(C)C)c(OC(=O)NS(=O)(=O)Nc2ccccc2)c(C(C)(C)C)c1 | – | – | – | 23.4 µM | – | -33% | –
CC(C)c1cc(O)cc(C(C)C)c1OC(=O)NS(=O)(=O)Oc1c(C(C)C)cccc1C(C)C | -55% | 95% | -5% | > 50 µM | -25% | – | –
COc1cccc(OC)c1OS(=O)(=O)NC(=O)Oc1c(C(C)C)cccc1C(C)C | -70% | 208% | -63% | > 50 µM | -62% | – | –
